Results on 26 molecules are retold here after patent publication US9611275B2 (priority 2012, dated 2017).

The series in a line: Assay for determination of apparent permeability (Papp), bi-directional transport. The settings on record: pig, LLC-PK1.
In general, Papp refers to the rate of passage across a membrane or cell layer, normalised by area and donor concentration. As for `CO[C@@](C)([C@H]1O[C@@H]2SC(N(C)C)=N[C@@H]2[C@@H](O)[C@@H]1O)C(F)(F)F` (single isomer, unassigned) [Example 74], the Papp at 3 h, 1 μM was 24.5 ×10⁻⁶ cm/s. The result for `CO[C@H]([C@H]1O[C@@H]2SC(N(C)C)=N[C@@H]2[C@@H](O)[C@@H]1O)C(F)(F)F` [Example 2, (3aR,5S,6S,7R,7aR)-2-(dimethylamino)-5-((R)-2,2,2-trifluoro-1-methoxyethyl)-5,6,7,7a-tetrahydro-3aH-pyrano[3,2-d]thiazole-6,7-diol] reads 20.8 ×10⁻⁶ cm/s; that for `CNC1=N[C@@H]2[C@@H](O)[C@H](O)[C@@H]([C@H](Oc3ccccc3)C(F)(F)F)O[C@@H]2S1` [Example 3, (3aR,5S,6S,7R,7aR)-2-(methylamino)-5-((S)-2,2,2-trifluoro-1-phenoxyethyl)-5,6,7,7a-tetrahydro-3aH-pyrano[3,2-d]thiazole-6,7-diol], 28.3 ×10⁻⁶ cm/s; that for `CNC1=N[C@@H]2[C@@H](O)[C@H](O)[C@@H]([C@@H](Oc3ccccc3)C(F)(F)F)O[C@@H]2S1` [Example 4, (3aR,5S,6S,7R,7aR)-2-(methylamino)-5-((R)-2,2,2-trifluoro-1-phenoxyethyl)-5,6,7,7a-tetrahydro-3aH-pyrano[3,2-d]thiazole-6,7-diol], 27.3 ×10⁻⁶ cm/s. `CN(C)C1=N[C@@H]2[C@@H](O)[C@H](O)[C@@H]([C@@H](Oc3ccc([N+](=O)[O-])cc3)C(F)(F)F)O[C@@H]2S1` [Example 9, (3aR,5S,6S,7R,7aR)-2-(dimethylamino)-5-((R)-2,2,2-trifluoro-1-(4-nitrophenoxy)ethyl)-5,6,7,7a-tetrahydro-3aH-pyrano[3,2-d]thiazole-6,7-diol]: the Papp at 3 h, 1 μM is 31.5 ×10⁻⁶ cm/s. The result for `CN[C@H]([C@H]1O[C@@H]2SC(N(C)C)=N[C@@H]2[C@@H](O)[C@@H]1O)C(F)(F)F` [Example 16, (3aR,5R,6S,7R,7aR)-2-(dimethylamino)-5-((R)-2,2,2-trifluoro-1-(methylamino)ethyl)-5,6,7,7a-tetrahydro-3aH-pyrano[3,2-d]thiazole-6,7-diol] reads 15.5 ×10⁻⁶ cm/s. As for `C=CCOc1ccc(CO[C@H]([C@H]2O[C@@H]3SC(N(C)C)=N[C@@H]3[C@@H](O)[C@@H]2O)C(F)(F)F)cc1` [Example 20, (3aR,5S,6S,7R,7aR)-5-((R)-1-(4-(allyloxy)benzyloxy)-2,2,2-trifluoroethyl)-2-(dimethylamino)-5,6,7,7a-tetrahydro-3aH-pyrano[3,2-d]thiazole-6,7-diol], the Papp at 3 h, 1 μM was 29.8 ×10⁻⁶ cm/s. With `CCO[C@@H]([C@H]1O[C@@H]2SC(N(C)C)=N[C@@H]2[C@@H](O)[C@@H]1O)C(F)(F)F` [Example 22, (3aR,5S,6S,7R,7aR)-2-(dimethylamino)-5-((S)-1-ethoxy-2,2,2-trifluoroethyl)-5,6,7,7a-tetrahydro-3aH-pyrano[3,2-d]thiazole-6,7-diol], the Papp at 3 h, 1 μM was 27.2 ×10⁻⁶ cm/s. As for `CCO[C@H]([C@H]1O[C@@H]2SC(N(C)C)=N[C@@H]2[C@@H](O)[C@@H]1O)C(F)(F)F` [Example 23, (3aR,5S,6S,7R,7aR)-2-(dimethylamino)-5-((R)-1-ethoxy-2,2,2-trifluoroethyl)-5,6,7,7a-tetrahydro-3aH-pyrano[3,2-d]thiazole-6,7-diol], the figure is 23.6 ×10⁻⁶ cm/s; as for `CCCO[C@H]([C@H]1O[C@@H]2SC(N(C)C)=N[C@@H]2[C@@H](O)[C@@H]1O)C(F)(F)F` [Example 25, (3aR,5S,6S,7R,7aR)-2-(dimethylamino)-5-((R)-2,2,2-trifluoro-1-propoxyethyl)-5,6,7,7a-tetrahydro-3aH-pyrano[3,2-d]thiazole-6,7-diol], 29.5 ×10⁻⁶ cm/s; as for `CCCCO[C@H]([C@H]1O[C@@H]2SC(N(C)C)=N[C@@H]2[C@@H](O)[C@@H]1O)C(F)(F)F` [Example 26, (3aR,5S,6S,7R,7aR)-5-((R)-1-butoxy-2,2,2-trifluoroethyl)-2-(dimethylamino)-5,6,7,7a-tetrahydro-3aH-pyrano[3,2-d]thiazole-6,7-diol], 30.8 ×10⁻⁶ cm/s. As for `CCCCCO[C@H]([C@H]1O[C@@H]2SC(N(C)C)=N[C@@H]2[C@@H](O)[C@@H]1O)C(F)(F)F` [Example 27, (3aR,5S,6S,7R,7aR)-2-(dimethylamino)-5-((R)-2,2,2-trifluoro-1-(pentyloxy)ethyl)-5,6,7,7a-tetrahydro-3aH-pyrano[3,2-d]thiazole-6,7-diol], the figure is 32 ×10⁻⁶ cm/s. As for `CN(C)C1=N[C@@H]2[C@@H](O)[C@H](O)[C@@H]([C@@H](OCCCF)C(F)(F)F)O[C@@H]2S1` [Example 29, (3aR,5S,6S,7R,7aR)-2-(dimethylamino)-5-((R)-2,2,2-trifluoro-1-(3-fluoropropoxy)ethyl)-5,6,7,7a-tetrahydro-3aH-pyrano[3,2-d]thiazole-6,7-diol], the figure is 20.9 ×10⁻⁶ cm/s. Regarding `CN(C)C1=N[C@@H]2[C@@H](O)[C@H](O)[C@@H]([C@@H](OCCCCF)C(F)(F)F)O[C@@H]2S1` [Example 30, (3aR,5S,6S,7R,7aR)-2-(dimethylamino)-5-((R)-2,2,2-trifluoro-1-(4-fluorobutoxy)ethyl)-5,6,7,7a-tetrahydro-3aH-pyrano[3,2-d]thiazole-6,7-diol], the Papp at 3 h, 1 μM worked out at 30.8 ×10⁻⁶ cm/s.

Consider `CN(C)C1=N[C@@H]2[C@@H](O)[C@H](O)[C@@H]([C@@H](OCC3CCCCC3)C(F)(F)F)O[C@@H]2S1` [Example 35, (3aR,5S,6S,7R,7aR)-5-((R)-1-(cyclohexylmethoxy)-2,2,2-trifluoroethyl)-2-(dimethylamino)-5,6,7,7a-tetrahydro-3aH-pyrano[3,2-d]thiazole-6,7-diol], for which the Papp at 3 h, 1 μM is 33.6 ×10⁻⁶ cm/s. As for `CN(C)C1=N[C@@H]2[C@@H](O)[C@H](O)[C@@H]([C@@H](OCCCc3ccc(F)cc3)C(F)(F)F)O[C@@H]2S1` [Example 36, (3aR,5S,6S,7R,7aR)-2-(dimethylamino)-5-((R)-2,2,2-trifluoro-1-(3-(4-fluorophenyl)propoxy)ethyl)-5,6,7,7a-tetrahydro-3aH-pyrano[3,2-d]thiazole-6,7-diol], the figure is 28.1 ×10⁻⁶ cm/s; as for `Cc1ccc(CO[C@H]([C@H]2O[C@@H]3SC(N(C)C)=N[C@@H]3[C@@H](O)[C@@H]2O)C(F)(F)F)cc1` [Example 40, (3aR,5S,6S,7R,7aR)-2-(dimethylamino)-5-((R)-2,2,2-trifluoro-1-(4-methylbenzyloxy)ethy1)-5,6,7,7a-tetrahydro-3aH-pyrano[3,2-d]thiazole-6,7-diol], 31.2 ×10⁻⁶ cm/s; as for `CCc1ccc(CO[C@H]([C@H]2O[C@@H]3SC(N(C)C)=N[C@@H]3[C@@H](O)[C@@H]2O)C(F)(F)F)cc1` [Example 41, (3aR,5S,6S,7R,7aR)-2-(dimethylamino)-5-((R)-1-(4-ethylbenzyloxy)-2,2,2-trifluoroethyl)-5,6,7,7a-tetrahydro-3aH-pyrano[3,2-d]thiazole-6,7-diol], 30.7 ×10⁻⁶ cm/s. Regarding `CN(C)C1=N[C@@H]2[C@@H](O)[C@H](O)[C@@H]([C@@H](OCc3cccc(F)c3F)C(F)(F)F)O[C@@H]2S1` [Example 46, (3aR,5S,6S,7R,7aR)-5-((R)-1-(2,3-difluorobenzyloxy)-2,2,2-trifluoroethyl)-2-(dimethylamino)-5,6,7,7a-tetrahydro-3aH-pyrano[3,2-d]thiazole-6,7-diol], the Papp at 3 h, 1 μM turned out to be 34.5 ×10⁻⁶ cm/s. As for `C[C@H](O[C@H]([C@H]1O[C@@H]2SC(N(C)C)=N[C@@H]2[C@@H](O)[C@@H]1O)C(F)(F)F)c1ccccc1` [Example 47, (3aR,5S,6S,7R,7aR)-2-(dimethylamino)-5-((R)-2,2,2-trifluoro-1-((S)-1-phenylethoxy)ethyl)-5,6,7,7a-tetrahydro-3aH-pyrano[3,2-d]thiazole-6,7-diol], the figure is 34 ×10⁻⁶ cm/s; as for `COc1ccccc1CO[C@@H]([C@H]1O[C@@H]2SC(N(C)C)=N[C@@H]2[C@@H](O)[C@@H]1O)C(F)(F)F` [Example 49, (3aR,5S,6S,7R,7aR)-2-(dimethylamino)-5-((S)-2,2,2-trifluoro-1-(2-mcthoxybenzyloxy)ethyl)-5,6,7,7a-tetrahydro-3aH-pyrano[3,2-d]thiazole-6,7-diol], 29.8 ×10⁻⁶ cm/s; as for `COc1ccccc1CO[C@H]([C@H]1O[C@@H]2SC(N(C)C)=N[C@@H]2[C@@H](O)[C@@H]1O)C(F)(F)F` [Example 50, (3aR,5S,6S,7R,7aR)-2-(dimethylamino)-5-((R)-2,2,2-trifluoro-1-(2-methoxybenzyloxy)ethyl)-5,6,7,7a-tetrahydro-3aH-pyrano[3,2-d]thiazole-6,7-diol], 31.5 ×10⁻⁶ cm/s. Consider `COc1cccc(CO[C@H]([C@H]2O[C@@H]3SC(N(C)C)=N[C@@H]3[C@@H](O)[C@@H]2O)C(F)(F)F)c1` [Example 51, (3aR,5S,6S,7R,7aR)-2-(dimethylamino)-5-((R)-2,2,2-trifluoro-1-(3-methoxybenzyloxy)ethyl)-5,6,7,7a-tetrahydro-3aH-pyrano[3,2-d]thiazole-6,7-diol], for which the Papp at 3 h, 1 μM came to 30.9 ×10⁻⁶ cm/s. The result for `COc1ccc(CO[C@@H]([C@H]2O[C@@H]3SC(N(C)C)=N[C@@H]3[C@@H](O)[C@@H]2O)C(F)(F)F)cc1` [Example 53, (3aR,5S,6S,7R,7aR)-2-(dimethylamino)-5-((R)-2,2,2-trifluoro-1-(4-mcthoxybenzyloxy)ethyl)-5,6,7,7a-tetrahydro-3aH-pyrano[3,2-d]thiazole-6,7-diol] reads 33 ×10⁻⁶ cm/s; that for `COc1ccc(CO[C@H]([C@H]2O[C@@H]3SC(N(C)C)=N[C@@H]3[C@@H](O)[C@@H]2O)C(F)(F)F)cc1C` [Example 54, (3aR,5S,6S,7R,7aR)-2-(dimethylamino)-5-((R)-2,2,2-trifluoro-1-(4-methoxy-3-methylbenzyloxy)ethyl)-5,6,7,7a-tetrahydro-3aH-pyrano[3,2-d]thiazole-6,7-diol], 31.3 ×10⁻⁶ cm/s. For `CCc1cc(CO[C@H]([C@H]2O[C@@H]3SC(N(C)C)=N[C@@H]3[C@@H](O)[C@@H]2O)C(F)(F)F)ccc1OC` [Example 59, (3aR,5S,6S,7R,7aR)-2-(dimethylamino)-5-((R)-1-(3-ethyl-4-methoxybenzyloxy)-2,2,2-trifluoroethyl)-5,6,7,7a-tetrahydro-3aH-pyrano[3,2-d]thiazole-6,7-diol], the apparent permeability (Papp) at 3 h, 1 μM was 29.6 ×10⁻⁶ cm/s.
